“And” between values parts separate entries of the source, which are not always exact repeats. Equal entries are not always repeated.
Legend:
[1] = U-tube experiment (partition across a bulk hydrophobic solvent); format: physicochemical; details: 250 µM on cis side; for Crossing to the trans-aqueous side of the U-tube (in words): up to 72 h; for Trans-side concentration, mean / Trans-side concentration, single replicates: 25°C
Procedure: (§1) Figure 2 (A) Partition of compounds in an U-tube experiment. Concentration of biguanide on the trans-side of the U-tube at 48 h and 72 h at 25 °C, after addition of 250 µM of biguanide on the cis-side. (B) Variation in the internal pH of HPTS-containing EYPC liposomes. Intravesicular solution: 1 mM HPTS, 10 mM HEPES, and 100 mM NaCl, adjusted to pH = 7.4, and extravesicular solution: 10 mM HEPES and 100 mM NaCl, adjusted to pH = 7.4. Biguanidiums were injected after 50 s at 5 mM (50 mol% relative to the 10 mM EYPC concentration), a NaOH pulse was induced at 300 s, and the liposomes were lysed with Triton-X at 550 s. Each curve is the average of three independent measurements. (C) Fluorescence of safranin O in the EYPC liposomes. Biguanidium salts were injected at 5 mM (50 mol% relative to the 10 mM EYPC concentration) at 50 s. Each curve is the average of three independent measurements. […] Mitochondrial isolation was performed according to the previously reported protocol.
Experimental. U-tube experiment was prepared by adding 800 µL of dichloromethane in a U-shaped tube as a representation of the hydrophobic lipid membrane. On the receiving end (trans side) of the tube was added 300 µL of distilled water while the other side (cis side) was filled with 300 µL of a 250 µM solution of the compound of interest at 25°C. At 48h and 72h, 100 µL aliquot of the trans side was diluted in 900 µL methanol and monitored by LCMS (292 m/z). Area under curve (AUC) was measured and fitted on a calibration curve.

[2] = HPTS assay, internal pH of EYPC liposomes; details: 5 mM (50 mol% relative to 10 mM EYPC), NaOH pulse at 300 s
Procedure: as §1

Panc1 cells = experiment: Growth assay (crystal violet), Panc1 cells; format: cell-based; details: Homo sapiens, PANC-1, 72 h
KP4 cells = experiment: Seahorse analysis of OCR and ECAR, KP4 cells; format: cell-based, human; details: 1b 15 µM; for Effect on ECAR (extracellular acidification rate): metformin; for Effect on oxygen consumption rate (OCR): metformin 5 mM
Excerpt: Figure 3 Effects of biguanides on cell proliferation and viability in pancreatic cancer cells. […]. […] | decimal sign comma or point
Next, we used the Seahorse analyser to quantify the ability of compound 1b to affect oxygen consumption rate (OCR) in KP4 cells. […]. […] […].
All chemicals were purchased from Aldrich Chemicals in their highest purity and used without further purification. Deuterated dimethylsulfoxide (DMSO-d^6) and deuterated chloroform (CDCl3) were purchased from CDN Isotopes. NMR spectra were recorded on Bruker advance 400 and 100 spectrometers. Coupling constants are given in hertz (Hz) and chemical shifts are given in parts per million (ppm, δ) measured relative to the residual solvent (the multiplicity of the signals are given as s: singlet, d: doublet, t: triplet, and m: multiplet). High-resolution mass spectra (HRMS) were recorded on a TSQ Quantum Ultra (Thermo Scientific) triple quadrupole with accurate mass option instrument (Université de Montréal Mass Spectrometry Facility). MS experiences were performed using an UltrafleXtreme MALDI TOF/TOF mass spectrometer equipped with a SmartBeam II Nd:Yag/355 nm laser operating at 1 kHz and providing a laser focus down to 20 μm in diameter (Bruker Daltonics, Billerica, MA). The data acquisition for MS was performed in positive ion mode using the linear geometry with flexControl 3.4 (Bruker Daltonics, Billerica, MA). Acceleration voltage was set to + 25 kV and all other instrumental parameters (delayed extraction parameters, source voltages, detector gain, laser energy, etc.) were optimized for maximum S/N for the drug compounds. L-α-Phosphatidylcholine was purchased from Avanti Polar Lipids. Transport and depolarization studies as well as absorbance measurements were performed on a Varian Cary Eclipse fluorescence spectrophotometer. The hemolysis assays were performed on a Fluostar Optima plate reader. Single crystals of C18H18F3N5O3S were obtained from chloroform. A suitable crystal was selected and analysed on a Bruker Venture Metaljet diffractometer. Crystal violet retention assay was used for cell growth assays and IC50 were determined using Prism (GraphPad). NAD/NADH quantitation colorimetric kit (#K337-100) from Biovision was used according to manufacturer’s instructions. ECAR (extracellular acidification rate) and OCR of KP4 cells (oxygen consumption rate) were measured on a Seahorse XF-24 (Agilent).
Experimental. ECAR (extracellular acidification rate) and OCR of KP4 cells (oxygen consumption rate) were measured on a Seahorse XF-24 (Agilent). The day before the experiment, KP4 cells were seeded in XF24 FluxPak seahorse plates (Agilent) at a density of 40.000 cells per well, in usual KP4 culture medium (DMEM, 10% FSB). […]

| Compound | Crossing to the trans-aqueous side of the U-tube (in words) [1] | Trans-side concentration, mean ([1]; 48h) | Trans-side concentration, single replicates ([1]; 48h) | Trans-side concentration, mean ([1]; 72h) | Trans-side concentration, single replicates ([1]; 72h) | Change of internal vesicular pH (HPTS) [2] | IC50 (Panc1 cells) | Effect on ECAR (extracellular acidification rate) (KP4 cells) | Effect on oxygen consumption rate (OCR) (KP4 cells) |
| --- | --- | --- | --- | --- | --- | --- | --- | --- | --- |
| N=C(N)NC(=N)NCc1ccc(C#Cc2ccccc2)cc1 [1b, 4-(phenylethynyl)benzylbiguanide] | able to partition rapidly into the chloroform and cross to the trans-aqueous side | 64,7 µM | 90,1 µM and 57,1 µM and 46,8 µM | 92,3 µM | 78,6 µM and 99,3 µM and 99,1 µM | basification of the internal vesicular pH | 0.015 mM | also observed with compound 1b | inhibited OCR |
| CN(C)C(=N)NC(=N)N [metformin, 1,1-dimethylbiguanide, reference compound] | only traces | – | – | – | – | no membrane activity | ~5 mM | increase of the ECAR | Inhibition of OCR |
